Where a name gives a salt, the structure may show the parent alone.
Key:
[1] = Water sorption analysis (0 % RH to 95 % RH, 25°C); assay type: physicochemical; conditions: for release of crystal water at 0 % RH: nitrogen flow rate 200 ml/min; for RH at which water sorption started: two 11-step circles from 0 % RH to 95 % RH
Protocol: An amount of 20 mg of zipasidone hydrogensulfate dihydrate was exposed to a watersorption analysis (Surface Measurement Systems Ltd., London, UK; two complete 11-step circles from 0 % RH to 95 % RH at the temperature 25°C and nitrogen flow rate 200 ml/min; minimal retention time at the step when dm/dt < 0.002% was 10 minutes and maximal 360 minutes) and compared to the same test of Ziprasidone hydrochloride monohydrate.

[2] = Solubility in water (pH 6.8) + 2 % SDS; assay type: physicochemical; conditions: water + 2 % SDS, aqueous with cosolvent or surfactant or cyclodextrin; water (pH 6.8) + 2 % SDS at room temperature

| SMILES | release of crystal water at 0 % RH [1] | stability to hydratation ([1]; compared with Ziprasidone hydrochloride salt) | RH at which water sorption started [1] [% RH] | solubility [2] [µg/mL] |
| --- | --- | --- | --- | --- |
| O.O.O=C1Cc2cc(CCN3CCN(c4nsc5ccccc45)CC3)c(Cl)cc2N1.O=S(=O)(O)O [Ziprasidone hydrogensulfate dihydrate, 5-[2-[4-(1,2-benzisothiazol-3-yl) -1-piperazinyl]ethyl] -6-chloro-1,3-dihydro-2H-indol-2-one hydrogensulfate dihydrate] | does not release crystal water | more stable to hydratation | 50 | 360 |
| O=C1Cc2cc(CCN3CCN(c4nsc5ccccc45)CC3)c(Cl)cc2N1 [Ziprasidone hydrochloride monohydrate, reference compound] | release crystal water |  | 30 |  |

From patent publication EP2046786B1, “POLYMORPHIC FORMS OF ZIPRASIDONE SULFATES” (KRKA, priority 2006, dated 2008)
